Reference: patent publication US20240082296A1, “TREATMENT OF MUSCLE ATROPHY USING DEXTRAN SULFATE” (TX MEDIC AB, priority 2020, published 2024)
Marks after values point to notes of the source that are not given here.

System: severe traumatic brain injury (sTBI) in rats
Assay: HPLC of purine-pyrimidine / energy metabolites in rat brain after sTBI (Example 4)
Format: in vivo
Procedure: The effects of daily sub-cutaneous injections of dextran sulfate on glutamate excitotoxicity and mitochondrial function after severe traumatic brain injury (sTBI) in rats were evaluated by high-performance liquid chromatography (HPLC) analysis of frozen brain samples.
The experimental protocol used in this study was approved by the Ethical Committee of the Catholic University of Rome, according to international standards and guidelines for animal care. Male Wistar rats of 300-350 g body weight (b.w.) were fed with standard laboratory diet and water ad libitum in a controlled environment.
They were divided into three groups: • 1) n=6 animals subjected to sTBI, with drug administration after 30 minutes and sacrifice at 2 days post-TBI (Acute phase 1) • 2) n=6 animals subjected to severe-TBI, with drug administration after 30 minutes and sacrifice at 7 days post-TBI (Acute phase 2). • 3) n=6 animals subjected to severe-TBI, with drug administration after 3 days and sacrifice at 7 days post-TBI (Chronic phase).
As the anesthetic mixture, animals received 35 mg/kg b.w. ketamine and 0.25 mg/kg b.w. midazolam by i.p. injection. sTBI was induced by dropping a 450 g weight from 2 m height on to the rat head that had been protected by a metal disk previously fixed on the skull, according to the “weight drop” impact acceleration model (Marmarou et al., A new model of diffuse brain injury in rats. Part I: Pathophysiology and biomechanics. J Neurosurg. 1994; 80: 291-300). […] At the end of each period of treatment, rats were anesthetized again and then immediately sacrificed.
The drug treatment was a subcutaneous injection of 0.5 ml of dextran sulfate (Tikomed AB, Viken, Sweden, WO 2016/076780; 15 mg/kg) and administered according to the aforementioned schematic protocol.
An in vivo craniectomy was performed in all animals during anesthesia, after carefully removing the rat's skull, the brain was exposed and removed with a surgical spatula and quickly dropped in liquid nitrogen. After the wet weight (w.w.) determination, tissue preparation was affected as previously disclosed (Tavazzi et al., Cerebral oxidative stress and depression of energy metabolism correlate with severity of diffuse brain injury in rats. Neurosurgery. 2005; 56: 582-589; Vagnozzi et al., Temporal window of metabolic brain vulnerability to concussions: mitochondrial-related impairment-part I. Neurosurgery. 2007; 61: 379-388; Tavazzi et al., Temporal window of metabolic brain vulnerability to concussions: oxidative and nitrosative stresses-part II. Neurosurgery. 2007; 61: 390-395; Amorini et al., Severity of experimental traumatic brain injury modulates changes in concentrations of cerebral free amino acids. J Cell Mol Med. 2017; 21: 530-542.). Briefly, whole brain homogenization was performed with 7 ml of ice-cold, nitrogen-saturated, precipitating solution composed by CH3CN+10 mM KH2PO4, pH 7.40, (3:1; v:v), and using an Ultra-Turrax set at 24,000 rpm/min (Janke & Kunkel, Staufen, Germany). After centrifugation at 20,690×g, for 10 min at 4° C., the clear supernatants were saved, pellets were supplemented with 3 ml of the precipitating solution and homogenized again as described above. A second centrifugation was performed (20,690×g, for 10 min at 4° C.), pellets were saved, supernatants combined with those previously obtained, extracted by vigorous agitation with a double volume of HPLC-grade CHCl3 and centrifuged as above. The upper aqueous phases containing water-soluble low-molecular weight compounds were collected, subjected to chloroform washings for two more times (this procedure allowed the removal of all the organic solvent and of any lipid soluble compound from the buffered tissue extracts), adjusted in volumes with 10 mM KH2PO4, pH 7.40, to have ultimately aqueous 10% tissue homogenates and saved at −80° C. until assayed. […]

[1] = Acute phase 2 (15 mg/kg s.c. 30 min after sTBI, sacrifice 7 days post-TBI)
[2] = Chronic phase (15 mg/kg s.c. 3 days after sTBI, sacrifice 7 days post-TBI)
[3] = rat brain after sTBI, after administration

Substance: dextran sulfate
- UDP-GalNac concentration [1]: 19.90 ± 3.12^a,e nmol/g (w.w.)
- UDP-Glc concentration [1]: 44.44 ± 7.59^j nmol/g (w.w.)
- UDP-GlcNac concentration [1]: 130.65 ± 28.41^a nmol/g (w.w.)
- UMP concentration [1]: 138.73 ± 32.01^b nmol/g (w.w.)
- UTP concentration [1]: 146.71 ± 32.68^e nmol/g (w.w.)
- acetyl-CoA concentration [1]: 36.86 ± 4.11^e nmol/g (w.w.)
- adenine concentration [1]: 58.16 ± 6.36^a,f nmol/g (w.w.)
- ascorbic acid concentration [1]: 3512.58 ± 224.62^a,e nmol/g (w.w.)
- creatinine concentration [1]: 37.27 ± 5.82^a,e,j nmol/g (w.w.)
- cytidine concentration [1]: 16.18 ± 4.21^e nmol/g (w.w.)
- cytosine concentration [1]: 15.70 ± 4.10^f nmol/g (w.w.)
- guanine concentration [1]: 4.73 ± 1.07 nmol/g (w.w.)
- guanosine concentration [1]: 17.90 ± 3.24^j nmol/g (w.w.)
- hypoxanthine concentration [1]: 12.90 ± 2.58^a,j nmol/g (w.w.)
- inosine concentration [1]: 85.52 ± 20.36^e nmol/g (w.w.)
- malonyl-CoA concentration [1]: 11.29 ± 2.27^b nmol/g (w.w.)
- orotic acid concentration [1]: 13.34 ± 3.65^a nmol/g (w.w.)
- thymidine concentration [1]: 0.49 ± 0.20^f nmol/g (w.w.)
- uracil concentration [1]: 19.40 ± 7.52^a,e nmol/g (w.w.)
- uric acid concentration [1]: 19.17 ± 2.15^a,h,i nmol/g (w.w.)
- uridine concentration [1]: 63.02 ± 9.66^b,e nmol/g (w.w.)
- xanthine concentration [1]: 10.41 ± 2.11^f nmol/g (w.w.)
- β-pseudouridine concentration [1]: 13.26 ± 3.16^a,e,j nmol/g (w.w.)
- ADO concentration [2]: 89.97 ± 12.98^a nmol/g (w.w.)
- ADP concentration [2]: 315.53 ± 46.53^a nmol/g (w.w.)
- ADP-ribose concentration [2]: 173.94 ± 8.45^a nmol/g (w.w.)
- AMP concentration [2]: 90.01 ± 21.24^a nmol/g (w.w.)
- ATP concentration [2]: 1381.03 ± 212.64^a nmol/g (w.w.)
- CDP choline concentration [2]: 8.37 ± 2.19 nmol/g (w.w.)
- CDP concentration [2]: 23.55 ± 6.45^a nmol/g (w.w.)
- CMP concentration [2]: 20.51 ± 3.73^a,f nmol/g (w.w.)
- CTP concentration [2]: 25.23 ± 2.93^a,f nmol/g (w.w.)
- CoA-SH concentration [2]: 27.58 ± 6.24^f nmol/g (w.w.)
- GDP concentration [2]: 173.05 ± 28.68^a,e nmol/g (w.w.)
- GDP glucose concentration [2]: 43.85 ± 5.06^b nmol/g (w.w.)
- GMP concentration [2]: 148.56 ± 31.21^a nmol/g (w.w.)
- GSH concentration [2]: 2608.67 ± 358.07^a,e nmol/g (w.w.)
- GSSG concentration [2]: 231.08 ± 44.34^b,f nmol/g (w.w.)
- GTP concentration [2]: 290.92 ± 34.68^a,f nmol/g (w.w.)
- IMP concentration [2]: 99.29 ± 13.82^a nmol/g (w.w.)
- MDA concentration [2]: 11.62 ± 3.90^a,e nmol/g (w.w.)
- NAA concentration [2]: 6375.36 ± 974.12^a,e nmol/g (w.w.)
- NADH concentration [2]: 11.78 ± 3.32^e nmol/g (w.w.)
- NADPH concentration [2]: 7.34 ± 2.65^f nmol/g (w.w.)
- NADP^+ concentration [2]: 16.44 ± 2.66^a,f nmol/g (w.w.)
- NAD^+ concentration [2]: 301.13 ± 29.90^a nmol/g (w.w.)
- NO2 concentration [2]: 217.67 ± 55.04^a nmol/g (w.w.)
- NO3 concentration [2]: 241.27 ± 18.84^e nmol/g (w.w.)
- UDP concentration [2]: 57.40 ± 5.88^a,f nmol/g (w.w.)
- UDP-Gal concentration [2]: 122.29 ± 12.15 nmol/g (w.w.)
- UDP-GalNac concentration [2]: 21.84 ± 2.80^a,e nmol/g (w.w.)
- UDP-Glc concentration [2]: 35.79 ± 3.45^b nmol/g (w.w.)
- UDP-GlcNac concentration [2]: 129.42 ± 15.88^b nmol/g (w.w.)
- UMP concentration [2]: 103.11 ± 29.79 nmol/g (w.w.)
- UTP concentration [2]: 136.80 ± 33.25^f nmol/g (w.w.)
- acetyl-CoA concentration [2]: 35.68 ± 6.55^e nmol/g (w.w.)
- adenine concentration [2]: 52.94 ± 8.59^a,f nmol/g (w.w.)
- ascorbic acid concentration [2]: 3375.03 ± 856.41^a,e nmol/g (w.w.)
- creatinine concentration [2]: 51.25 ± 10.17^a,f nmol/g (w.w.)
- cytidine concentration [2]: 14.71 ± 2.83^e nmol/g (w.w.)
- cytosine concentration [2]: 15.58 ± 2.50^b,f nmol/g (w.w.)
- guanine concentration [2]: 5.31 ± 1.04^b nmol/g (w.w.)
- guanosine concentration [2]: 28.87 ± 7.60^a,f nmol/g (w.w.)
- hypoxanthine concentration [2]: 17.97 ± 4.49^a nmol/g (w.w.)
- inosine concentration [2]: 105.81 ± 25.57^f nmol/g (w.w.)
- malonyl-CoA concentration [2]: 10.00 ± 1.95^b nmol/g (w.w.)
- orotic acid concentration [2]: 12.05 ± 1.50^a nmol/g (w.w.)
- thymidine concentration [2]: 0.71 ± 0.11 nmol/g (w.w.)
- uracil concentration [2]: 16.57 ± 2.99^a,f nmol/g (w.w.)
- uric acid concentration [2]: 27.77 ± 3.60^a nmol/g (w.w.)
- uridine concentration [2]: 63.28 ± 3.37^f nmol/g (w.w.)
- xanthine concentration [2]: 9.35 ± 0.83^f nmol/g (w.w.)
- β-pseudouridine concentration [2]: 18.62 ± 2.80^a nmol/g (w.w.)
- cerebral nitrate concentrations (both the acute and chronic phases of sTBI): significantly decreased
- cerebral GSH level [3]: significant improvement
- cerebral MDA levels [3]: significant reduction
- cerebral NAA and its substrates [3]: significant improvements
- cerebral ascorbic acid level [3]: significant improvement
